Reference: paper PMC4019984, “Kinase and channel activity of TRPM6 are co-ordinated by a dimerization motif and pocket interaction” (Biochemical Journal, 2014)

What was measured:
Assay type in all cases: binding, human
[1] = system: GST-tagged TRPM6-(1730–end) Q1832K; experiment: Peptide pull-down, Q1832K mutant; details: HEK-293 lysate, 3 μg peptide, 4°C, anti-GST immunoblot
Method: (§1) The peptides biotin-C6-[…]-TIPFTPVQLFAGEEITV (wild-type) and biotin-C6-LKSPQE-[…] (mutant) were purchased from GL Biochem. For a peptide pull-down, 1–5 mg of lysate was incubated with 3 μg of the respective peptide for 10 min at 4°C under gentle agitation, followed by 5 min of incubation with 10–20 μl of streptavidin beads at 4°C. The immunoprecipitates were washed three times with lysis buffer containing 0.15 M NaCl and then twice with buffer A. Proteins were eluted by resuspending washed immunoprecipitates in 30 μl of SDS sample buffer. […]
(§2) Figure 3 Analysis of the dimerization pocket residues (A) Structural model of TRPM6 based on TRPM7 α-kinase depicting the binding of Leu^1718 and Leu^1721 to other residues in the α-kinase domain. […] The samples were analysed by immunoblotting with anti-GST antibody (top panel). […] (C) Fluorescence polarization analysis of the dimerization motif peptide with E. coli purified GST-tagged TRPM6-(1730–end) and indicated mutants. […] Proteins were separated by SDS/PAGE, stained with Coomassie Blue (top and middle panels) and MBP phosphorylation was detected by autoradiography (bottom panel). […] Proteins were separated by SDS/PAGE, stained with Coomassie Blue (top and middle gels) and MBP phosphorylation was detected by autoradiography (bottom gel). […]

[2] = system: GST-tagged TRPM6-(1730–end) L1840A; experiment: Peptide pull-down, L1840A mutant; details: HEK-293 lysate, 3 μg peptide, 4°C, anti-GST immunoblot
Method: as §1, §2

[3] = system: full-length FLAG-tagged wild-type TRPM6; experiment: Peptide pull-down, full-length wild-type TRPM6; details: full-length wild-type TRPM6, HEK-293 lysate, 3 μg peptide, 4°C; anti-FLAG immunoblot
Method: (§3) The peptides biotin-C6-[…]-TIPFTPVQLFAGEEITV (wild-type) and biotin-C6-LKSPQE-[…] (mutant) were purchased from GL Biochem. For a peptide pull-down, 1–5 mg of lysate was incubated with 3 μg of the respective peptide for 10 min at 4°C under gentle agitation, followed by 5 min of incubation with 10–20 μl of streptavidin beads at 4°C. The immunoprecipitates were washed three times with lysis buffer containing 0.15 M NaCl and then twice with buffer A. Proteins were eluted by resuspending washed immunoprecipitates in 30 μl of SDS sample buffer.
(§4) Figure 2 Identification of dimerization motif residues in TRPM6 (A) Structural model of TRPM7 α-kinase depicting the N-terminal non-catalytic α-helix of one monomer that interacts with the kinase segment of the other monomer. (B) Fluorescence polarization analysis of wild-type (WT) and mutant (Mut) dimerization motif peptides with E. coli-purified GST-tagged TRPM6-(1730–end). […] The samples were analysed by immunoblotting with anti-GST antibody (top panel). […] Proteins were separated by SDS/PAGE, stained with Coomassie Blue (top and middle gels) and MBP phosphorylation was detected by autoradiography (bottom gel). […] Proteins were separated by SDS/PAGE, stained with Coomassie Blue (top and middle gels) and MBP phosphorylation was detected by autoradiography (bottom gel). […] The pull-down samples were analysed by immunoblotting with anti-FLAG antibody (top panel). […]

[4] = system: GST-tagged TRPM6-(1730–end) L1919Q; experiment: Peptide pull-down, L1919Q mutant; details: HEK-293 lysate, 3 μg peptide, 4°C, anti-GST immunoblot
Method: as §1, §2

[5] = system: GST-tagged TRPM6-(1730–end) A1836N; experiment: Peptide pull-down, A1836N mutant; details: HEK-293 lysate, 3 μg peptide, 4°C, anti-GST immunoblot
Method: as §1, §2

[6] = system: full-length TRPM6 L1718A+L1721A; experiment: Peptide pull-down, full-length TRPM6 L1718A+L1721A; details: full-length L1718A+L1721A TRPM6, HEK-293 lysate, 3 μg peptide, 4°C; anti-FLAG immunoblot
Method: as §3, §4

## biotin-C6-LKSPQEPHHHYSAIERNNLMRLSQ-TIPFTPVQLFAGEEITV [biotinylated dimerization motif peptide, biotin-C6 wild-type dimerization motif peptide; conjugated to streptavidin–Sepharose]
[1]
  binding to biotinylated dimerization motif peptide (pull-down): abolished binding to the peptide
[2]
  binding to biotinylated dimerization motif peptide (pull-down): abolished binding to the peptide
[3]
  interaction with biotinylated dimerization motif peptide (pull-down): do not interact
[4]
  binding to biotinylated dimerization motif peptide (pull-down): abolished binding to the peptide
[5]
  binding to biotinylated dimerization motif peptide (pull-down): abolished binding to the peptide
[6]
  interaction with biotinylated dimerization motif peptide (pull-down): rendered capable of interacting
